Source: patent US20040162221A1, “Pyrazole derivatives and herbicides containing the same” (IDEMITSU KOSAN CO., LTD., priority 1998, published 2004)

Columns and labels:
redroot pigweed [1] = experiment: Upland pre-emergence treatment test, redroot pigweed; assay type: in vivo, redroot pigweed (Amaranthus retroflexus); settings: for Herbicidal Efficacy CC = Rough Pigweed: pre-emergence soil surface spray, 80 g/ha, 20th day after treatment, greenhouse; as to Herbicidal Efficacy CC = Rough Pigweed: ranges in brackets are in %
Source text: (§1) 97 Parts by weight of talc (trade name: Zeaklite, supplied by Zeaklite Industry) as a carrier, 1.5 parts by weight of alkylarylsulfonic acid salt (trade name: Neoplex, supplied by Kao-Atlas K.K.) as a surfactant and 1.5 parts by weight of a nonionic and anionic surfactant (trade names Sorpol 800A, supplied by Toho Chemical Co., Ltd.) were uniformly pulverized and mixed to prepare a carrier for a wettable powder.
(§2) 90 Parts by weight of the above carrier for a wettable powder and 10 parts by weight of one of the compounds of the present invention were uniformly pulverized and mixed to obtain herbicides. Further, in Comparative Herbicide Examples, comparative herbicides were also prepared from the following compounds (A) and (B) in the same manner.
(§3) Herbicidal efficacy and phytotoxicity to crops were determined on the basis of the ratio of remaining plant weight to plant weight in non-treated plot=(remaining plant weight in treated plot/plant weight in non-treated-plot)×100. The ratings were applied to the following biological tests.
(§4) Seeds of weeds such as velvetleaf, common lambsquaters, redroot pigweed, common ragweed, green foxtail and large crabgrass and seeds of corn were sown in 1/5,000-are Wagner pots filled with upland soil, and covered with upland soil. Then, a predetermined amount of the herbicide prepared in the above (1) was suspended in water, and the suspension was uniformly sprayed onto the soil surface at a rate of 2,000 liters/hectare. Then, the seeds were grown in a greenhouse, and on the 20th day after the treatment, the herbicide was evaluated for herbicidal efficacy and phytotoxicity to corn on the basis of the ratings shown in (2).

common ragweed [2] = experiment: Upland pre-emergence treatment test, common ragweed; assay type: in vivo, common ragweed (Ambrosia artemisilfolia); settings: pre-emergence soil surface spray, 80 g/ha, 20th day after treatment, greenhouse; also: ranges in brackets are in %
Source text: as §1, §2, §3, §4

velvetleaf [3] = experiment: Upland pre-emergence treatment test, velvetleaf; assay type: in vivo, velvetleaf (Abutilon theophrasti); settings: pre-emergence soil surface spray, 80 g/ha, 20th day after treatment, greenhouse; also: ranges in brackets are in %
Source text: as §1, §2, §3, §4

large crabgrass [4] = experiment: Upland post-emergence treatment test, large crabgrass; assay type: in vivo; settings: post-emergence spray at 3-4 leaf stage, 80 g/ha, 30th day after treatment, greenhouse; also: ranges in brackets are in %
Source text: as §1, §2, §3
(§5) Seeds of weeds velvetleaf, redroot pigweed, common ragweed, green foxtail and large crabgrass and seeds of corn were sown in 1/5,000-are Wagner pots filled with upland soil, and covered with upland soil. The seeds were grown in a greenhouse, and at the stage of 3˜4 leaves of these plants, a predetermined amount of the herbicide prepared in the above (1) was suspended in water, and the suspension was uniformly sprayed onto leaf and stalk portions at a rate of 2,000 liters/hectare. Then, the plants were grown in the greenhouse, and on the 30th day after the treatment, the herbicide was evaluated for herbicidal efficacy and phytotoxicity to the corn on the basis of the ratings shown in (2).

common lambsquaters = experiment: Upland pre-emergence treatment test, common lambsquaters; assay type: in vivo, common lambsquaters (Chenopodium album); settings: pre-emergence soil surface spray, 80 g/ha, 20th day after treatment, greenhouse; also: ranges in brackets are in %
Source text: as §1, §2, §3, §4

corn [5] = experiment: Upland post-emergence treatment test, phytotoxicity to corn; assay type: in vivo; settings: post-emergence spray at 3-4 leaf stage, 80 g/ha, 30th day after treatment, greenhouse; also: ranges in brackets are in %
Source text: as §1, §2, §3, §5

corn [6] = experiment: Upland pre-emergence treatment test, phytotoxicity to corn; assay type: in vivo; settings: pre-emergence soil surface spray, 80 g/ha, 20th day after treatment, greenhouse; also: ranges in brackets are in %
Source text: as §1, §2, §3, §4

common ragweed [7] = experiment: Upland post-emergence treatment test, common ragweed; assay type: in vivo, common ragweed (Ambrosia artemisilfolia); settings: post-emergence spray at 3-4 leaf stage, 80 g/ha, 30th day after treatment, greenhouse; also: ranges in brackets are in %
Source text: as §1, §2, §3, §5

large crabgrass [8] = experiment: Upland pre-emergence treatment test, large crabgrass; assay type: in vivo; settings: pre-emergence soil surface spray, 80 g/ha, 20th day after treatment, greenhouse; also: ranges in brackets are in %
Source text: as §1, §2, §3, §4

velvetleaf [9] = experiment: Upland post-emergence treatment test, velvetleaf; assay type: in vivo, velvetleaf (Abutilon theophrasti); settings: post-emergence spray at 3-4 leaf stage, 80 g/ha, 30th day after treatment, greenhouse; also: ranges in brackets are in %
Source text: as §1, §2, §3, §5

green foxtail [10] = experiment: Upland pre-emergence treatment test, green foxtail; assay type: in vivo, green foxtail (Setaria viridis); settings: pre-emergence soil surface spray, 80 g/ha, 20th day after treatment, greenhouse; also: ranges in brackets are in %
Source text: as §1, §2, §3, §4

green foxtail [11] = experiment: Upland post-emergence treatment test, green foxtail; assay type: in vivo, green foxtail (Setaria viridis); settings: post-emergence spray at 3-4 leaf stage, 80 g/ha, 30th day after treatment, greenhouse; also: ranges in brackets are in %
Source text: as §1, §2, §3, §5

redroot pigweed [12] = experiment: Upland post-emergence treatment test, redroot pigweed; assay type: in vivo, redroot pigweed (Amaranthus retroflexus); settings: for Herbicidal Efficacy CC = Redroot Pigweed: post-emergence spray at 3-4 leaf stage, 80 g/ha, 30th day after treatment, greenhouse; as to Herbicidal Efficacy CC = Redroot Pigweed: ranges in brackets are in %
Source text: as §1, §2, §3, §5

Structure (SMILES)	Herbicidal Efficacy CC = Rough Pigweed (redroot pigweed [1])	Herbicidal Efficacy DD = Common ragweed (common ragweed [2])	Herbicidal Efficacy AA = Velvetleaf (velvetleaf [3])	Herbicidal Efficacy FF = Large crabgrass (large crabgrass [4])	Herbicidal Efficacy BB = Common lambsquaters (common lambsquaters)	Phytotoxicity Corn (corn [5])	Phytotoxicity Corn (corn [6])	Herbicidal Efficacy DD = Common ragweed (common ragweed [7])	Herbicidal Efficacy FF = Large crabgrass (large crabgrass [8])	Herbicidal Efficacy AA = Velvetleaf (velvetleaf [9])	Herbicidal Efficacy EE = Green foxtail (green foxtail [10])	Herbicidal Efficacy EE = Green foxtail (green foxtail [11])	Herbicidal Efficacy CC = Redroot Pigweed (redroot pigweed [12])	herbicidal efficacy against redroot pigweed (in words) (redroot pigweed [1]; pre-emergence, text summary of Table 7)	herbicidal efficacy against redroot pigweed (in words) (redroot pigweed [12]; post-emergence, Tables 8 and 9)
Cc1c(C(=O)c2cnn(C)c2OC(=O)C2CCCCC2)ccc2c1C(C)(C)CS2(=O)=O [Compound 37]	5 (0)	5 (0)	5 (0)	5 (0)	5 (0)	− (100)	− (100)	5 (0)	5 (0)	5 (0)	5 (0)	5 (0)	5 (0)	–	–
Cc1c(C(=O)c2cnn(C)c2OC(=O)c2ccccc2)ccc2c1C(C)(C)CS2(=O)=O [Compound 39]	5 (0)	5 (0)	5 (0)	5 (0)	5 (0)	− (100)	− (100)	5 (0)	5 (0)	5 (0)	5 (0)	5 (0)	5 (0)	–	–
Cc1ccc(S(=O)(=O)Oc2c(C(=O)c3ccc4c(c3C)C(C)(C)CS4(=O)=O)cnn2C)cc1 [Compound 18]	5 (0)	4 (1-20)	5 (0)	5 (0)	5 (0)	− (100)	− (100)	5 (0)	5 (0)	5 (0)	5 (0)	5 (0)	5 (0)	–	–
Cc1c(C(=O)c2cnn(C)c2OCC(=O)c2ccccc2)ccc2c1C(C)(C)CS2(=O)=O [Compound 49, 5-(1′-methyl-5′-phenacyloxypyrazol-4′-yl)carbonyl-3,3,4-trimethyl-2,3-dihydrobenzothiophene-1,1-dioxide]	5 (0)	5 (0)	5 (0)	5 (0)	5 (0)	− (100)	− (100)	5 (0)	5 (0)	5 (0)	5 (0)	5 (0)	5 (0)	–	–
Cc1c(C(=O)c2cnn(C)c2OS(C)(=O)=O)ccc2c1C(C)(C)CS2(=O)=O [Compound 2]	5 (0)	5 (0)	5 (0)	5 (0)	5 (0)	− (100)	− (100)	5 (0)	5 (0)	5 (0)	5 (0)	5 (0)	5 (0)	–	–
Cc1c(C(=O)c2cnn(C)c2O)ccc2c1C(C)(C)CS2(=O)=O.[Na] [Compound 52, 5-(1′-methyl-5′-hydroxypyrazol-4′-yl)carbonyl-3,3,4-trimethyl-2,3-dihdyrobenzothiophene-1,1-dioxide sodium salt]	5 (0)	4 (1-20)	4 (1-20)	5 (0)	5 (0)	− (100)	− (100)	5 (0)	5 (0)	5 (0)	4 (1-20)	5 (0)	5 (0)	–	–
Cc1c(C(=O)c2cnn(C)c2O)ccc2c1C(C)(C)CS2(=O)=O [Compound 1, 5-(1′-methyl-5′-hydroxypyrazol-4′-yl)carbonyl-3,3,4-trimethyl-2,3-dihydrobenzothiophene-1,1-dioxide]	5 (0)	5 (0)	5 (0)	5 (0)	5 (0)	− (100)	− (100)	5 (0)	5 (0)	5 (0)	5 (0)	5 (0)	5 (0)	–	–
CCCS(=O)(=O)Oc1c(C(=O)c2cc(C)c3c(c2C)C(C)(C)CS3(=O)=O)cnn1CC [Compound (A), reference compound]	0 (81-100)	1 (61-80)	2 (41-60)	1 (61-80)	2 (41-60)	− (100)	− (100)	2 (41-60)	1 (61-80)	2 (41-60)	1 (61-80)	1 (61-80)	0 (81-100)	clearly poor	clearly poor
